Data as given in ChEMBL document CHEMBL3596190, “Non-classical -carbonic anhydrase inhibitors-towards novel anti-mycobacterials” (Medchemcomm, 2014).
Values after ≈ are worked out from the molar mass of the structure shown. Active and inactive are the calls of the source. No cut-off for these calls is given here.

Legend:
[1] = tested on: BL21-AI; settings: Mycobacterium tuberculosis, at 25 µM
Description: Inhibition of His6-tagged Mycobacterium tuberculosis Rv3588c expressed in Escherichia coli BL21-AI cells assessed as reduction in Vmax at 25 uM by stopped flow CO2 hydration assay based Michaelis-Menten analysis

[2] = tested on: Mycobacterium tuberculosis; assay: Effect on quaternary structure of un-tagged Mycobacterium tuberculosis beta-carbonic anhydrase Rv3588c at pH 6.0 by size exclusion chromatography
[3] = tested on: Mycobacterium tuberculosis; assay: Effect on quaternary structure of un-tagged Mycobacterium tuberculosis beta-carbonic anhydrase Rv3588c at pH 8.5 by size exclusion chromatography
[4] = Inhibition of His6-tagged Mycobacterium tuberculosis Rv3588c expressed in Escherichia coli BL21-AI cells by stopped flow CO2 hydration assay based Michaelis-Menten analysis; format: cell-based
[5] = tested on: BL21-AI; assay: Inhibition of His6-tagged Mycobacterium tuberculosis Rv3588c expressed in Escherichia coli BL21-AI cells assessed as increase in Hill coefficient at 25 uM by stopped flow CO2 hydration assay based Michaelis-Menten analysis
[6] = biological target: T1, Beta-carbonic anhydrase 1 (Mycobacterium tuberculosis) (UniProt P9WPJ7); assay: Binding affinity to His6-tagged Mycobacterium tuberculosis Rv1284 expressed in Escherichia coli BL21-AI cells assessed as […] in melting temperature at 250 uM by SYPRO orange dye based differential scanning fluorimetry
T1 sequence (whole entry): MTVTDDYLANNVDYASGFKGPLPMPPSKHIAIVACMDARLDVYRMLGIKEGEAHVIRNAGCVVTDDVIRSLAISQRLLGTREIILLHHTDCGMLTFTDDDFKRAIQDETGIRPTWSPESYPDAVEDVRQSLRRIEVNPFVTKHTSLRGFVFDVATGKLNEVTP

[7] = tested on: Mycobacterium tuberculosis; assay: Growth inhibition of Mycobacterium tuberculosis H37Ra incubated for 7 days by resazurin dye based fluorescence assay; format: functional; settings: 168 h

In the case of `COc1c(Br)cc(/C=C/C(=O)NCCCNCCCCNCCCNC(=O)/C=C/c2cc(Br)c(OC)c(Br)c2)cc1Br` [IANTHELLIFORMISAMINE C], the inhibition [1] is reported as “Active”, the Activity [2] is reported as “inactive” and the Activity [3] is reported as “inactive”. The Ki [4] was 16 µM, the inhibition [5] was “Active” and the deltaTm [6] was 1 K. The MIC90 [7] was 12.5 µM (≈ 10.5 µg/mL).
With `COc1c(Br)cc(C/C(=N\O)C(=O)NCCCC(=O)N(C)CCCCN(C)CCCNC(=O)/C(Cc2cc(Br)c(OC)c(Br)c2)=N/O)cc1Br` [SPERMATINAMINE] the Activity [2] was “inactive”, the Activity [3] was “inactive” and the Ki [4] was 23 µM. The inhibition [5] was “Active”, the deltaTm [6] was 1.2 K and the MIC90 [7] was 6.3 µM (≈ 6.03 µg/mL).
In the case of `N#C[S-].[Na+]` [THIOCYANATE SODIUM], the inhibition [1] is reported as “Active” and the Ki [4] is reported as 8 µM.
In the case of `C=C1CC[C@@H](C/C=C(\C)CC/C=C(/CCC=C(C)C)C(=O)O)C(C)(C)[C@H]1CC/C(C)=C/C(=O)O`, the inhibition [1] is reported as “Active”, the Activity [2] is reported as “inactive” and the Activity [3] is reported as “inactive”. The Ki [4] was 10 µM, the inhibition [5] was “Active” and the deltaTm [6] was 5.4 K. It also gave an MIC90 [7] of over 50 µM.
